In patent US10501453B2, “Benzothiazole or benzoxazole compounds as SUMO activators” (Icahn School of Medicine at Mount Sinai, priority 2012, dated 2019):

How the values were obtained:
[1] = tested on: adult rat ventricular myocytes (ARVMs); assay: Cell shortening/re-lengthening and calcium transient of ARVMs (IonOptix); format: cell-based
Protocol: Calcium-tolerant adult rat ventricular myocytes (ARVMs) were obtained from hearts of male Sprague-Dawley rats (250 to 300 g). The heart was excised and perfused with a standard enzymatic technique. ARVMs were plated on multi-chambered plates or culture dishes, pre-coated with laminin 2 μg/cm^2, at a density of 10^5 cells/cm^2 in DMEM without L-glutamine supplemented with 10 mmol/l HEPES, 3.7 mg/ml NaHCO3, 1 mg/ml glucose, 0.11 mg/ml sodium pyruvate, 2 mg/ml bovine serum albumin, 2 mmol/1 L-camitine, 5 mmol/1 creatine, 5 mmol/1 taurine, 1% penicillin-streptomycin, and 1% gentamycin. Following isolation, cells were allowed to settle for 1 hour. Cultures were incubated at 37° C., in an atmosphere of 5% CO2-95% air. Fresh medium was added gently as medium was being drawn off until the cultures had been thoroughly washed. Only quiescent, rod-shape cardiac myocytes were selected for IonOptix experiments.
Each compound was added at 10 μM. DMSO was used as a control. After 24 hours at 37° C., SERCA2a SUMOylation and functional analysis were determined.
Mechanical properties of ARVMs were assessed using an IonOptix MyoCam® system (IonOptix, Milton, Mass.). In brief, cells were placed in a Warner chamber mounted on the stage of an inverted microscope (Olympus, IX-70) and superfused (1 ml/min at 30° C.) with a buffer containing 131 mM NaCl, 4 mM KCl, 1 mM CaCh, 1 mM MgCh, 10 mM glucose, and 10 mM HEPES, pH 7.4. ARVMs were field stimulated with suprathreshold voltage and at a frequency of 0.5 Hz. […] SoftEdge software (IonOptix) was used to capture changes in cell length during shortening and re-lengthening.
ARVMs were placed in a chamber on an Olympus IX-70 inverted microscope and imaged through a Fluor 40× oil objective. ARVMs were exposed to light emitted by a 75 W lamp and passed through either a 360 or a 380 nm filter (bandwidths were ±15 nm), while being stimulated to contract at 0.5 Hz. Fluorescence emissions were detected between 480 and 520 nm by a photomultiplier tube after first illuminating cells at 360 nm for 0.5 s then at 380 nm for the duration of the recording protocol (333 Hz sampling rate). The 360 nm excitation scan was repeated at the end of the protocol and qualitative changes in intracellular Ca^2+ concentration ((Ca^2+]i) were inferred from the ratio of the fluorescence intensity at two wavelengths.
The effects of the Example compound was examined on isolated rat cardiomyocytes shortening and relaxation parameters. […] Effects of Example 1 on mechanical properties of the ARVMs were assessed using a video-based edge detection system (IonOptix). The time constant of the increase of force during the stretch decreased (tau), percentage of peak shortening (PS), maximal rate of relaxation and contraction were analyzed at 24 hrs postincubation of the compounds in culture media (N=10 ARVMs). The mechanical data were analyzed with student's t-test (FIG. 2A, P<0.05 compared to the DMSO treated cells). SERCA2a SUMOylation profiling was analyzed in a same set of ARVMs (FIG. 2B, WCL, whole cell lysates; S-SERCA2a, SUMOylated SERCA2a).

sham-operated animals = assay: Hemodynamics in sham-operated mice; format: in vivo, mouse
Protocol: Hemodynamics were measured to evaluate the acute effect of Example 1 infusion on the cardiac function of the mouse model of HF. In the first set of experiments, mice were exposed to pressure overload by thoracic aortic constriction (TAC) or sham operation and received either EXAMPLE 1 or vehicle. At two months post-TAC animals developed HF. […] In addition, the positive chronotropic effect of dobutamine was no longer observed in TAC mice (FIG. 9). Following cannulation of the carotid artery and external jugular vein, infusion of EXAMPLE 1 or vehicle was performed as described in Method section. Pressure and conductance catheters were introduced in the LV through the carotid artery. Pressure and volume measurements were made simultaneously and pressure volume curves were constructed as the vehicle or EXAMPLE 1 were infused.
Hemodynamic data were obtained in 1 mg of EXAMPLE 1-treated failing hearts at 30 min and 60 min after compound treatment. […] The improvement occurred within 30 minutes after treatment and maintained for 60 minutes after treatment. […] The effects of EXAMPLE 1 on various hemodynamic parameters are shown in FIG. 9b and Table S1. dP/dt max increased with increasing concentration of EXAMPLE 1 while Tau a parameter of relaxation decreased an indication of enhanced relaxation.

SUMO E1 enzyme = target: T1, SUMO E1 enzyme (Homo sapiens, UniProt Q9UBT2); assay: Thioester formation between SUMO-1 and SUMO E1 enzyme (gel-based assay); format: biochemical
T1 sequence (Q9UBT2 1-640): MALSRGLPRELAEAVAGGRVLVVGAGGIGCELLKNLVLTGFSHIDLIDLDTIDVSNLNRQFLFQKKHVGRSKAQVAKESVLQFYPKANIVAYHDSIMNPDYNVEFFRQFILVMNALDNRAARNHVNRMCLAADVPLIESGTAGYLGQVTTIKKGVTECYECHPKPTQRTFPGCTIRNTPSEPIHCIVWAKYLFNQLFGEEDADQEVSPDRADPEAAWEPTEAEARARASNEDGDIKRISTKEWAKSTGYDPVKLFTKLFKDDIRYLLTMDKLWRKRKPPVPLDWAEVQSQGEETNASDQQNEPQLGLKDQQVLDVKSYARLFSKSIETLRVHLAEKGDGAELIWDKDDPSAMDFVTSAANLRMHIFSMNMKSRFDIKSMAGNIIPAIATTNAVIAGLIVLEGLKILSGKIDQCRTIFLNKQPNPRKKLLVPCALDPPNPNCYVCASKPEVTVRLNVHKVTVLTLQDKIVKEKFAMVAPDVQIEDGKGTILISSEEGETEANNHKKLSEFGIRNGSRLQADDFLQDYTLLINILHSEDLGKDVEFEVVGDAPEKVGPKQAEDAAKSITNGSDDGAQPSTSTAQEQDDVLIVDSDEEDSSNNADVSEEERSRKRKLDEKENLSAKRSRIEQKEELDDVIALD
T1 sequence (Q9UBE0 1-346): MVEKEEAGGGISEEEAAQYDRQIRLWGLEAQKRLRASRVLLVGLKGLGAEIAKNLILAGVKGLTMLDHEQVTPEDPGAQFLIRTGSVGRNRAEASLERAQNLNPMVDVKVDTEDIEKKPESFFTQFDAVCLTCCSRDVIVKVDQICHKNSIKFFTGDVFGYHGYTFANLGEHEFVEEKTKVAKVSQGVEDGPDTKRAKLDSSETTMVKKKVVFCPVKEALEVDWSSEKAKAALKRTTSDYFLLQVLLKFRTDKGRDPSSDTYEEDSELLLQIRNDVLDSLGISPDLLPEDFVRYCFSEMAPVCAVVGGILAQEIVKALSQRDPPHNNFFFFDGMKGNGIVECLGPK

**Q.** What does the source list for `COc1ccc(-c2nnc(Nc3nc4c(OC)cccc4s3)o2)cc1` [Example 1, N-(4-methoxybenzo[d]thiazol-2-yl)-5-(4-methoxyphenyl)-1,3,4-oxadiazol-2-amine]?
**A.** Tau value (dose response) ([1]; 10 μM): 1.0 ± 0.1 ms; effects on mechanical properties of ARVMs (inotropic, lusitropic) ([1]; 24 hrs, versus DMSO): positive inotropic and lusitropic effects; Tau (rate of transient calcium decay) ([1]; isolated adult cardiomyocytes, DMSO 2.4±0.2, n=10): 1.8 ± 0.2 ms; Peak shortening ([1]; isolated adult cardiomyocytes, DMSO 3.0±0.8, n=10): 12.0±0.8%; Maximal rate of relaxation ([1]; isolated adult cardiomyocytes, DMSO 54.0±2.4, n=10): 210.7±19.4 μm/sec; Maximal rate of contraction ([1]; isolated adult cardiomyocytes, DMSO −64.0±7.9, n=10): −185.5±6.5 μm/sec; hemodynamic parameters in sham-operated groups (sham-operated animals): No statistically significant changes; EC50 (SUMO E1 enzyme): 1850 ± 960 nM
